The source of these data is the METLIN SMRT retention time set (Domingo-Almenara et al. 2019).

The data set in a line: gradient 5% acetonitrile 3 min, to 50% in 2 min, to 85% in 15 min, held 3 min, 100 µL/min. The settings on record: column: Zorbax Extend-C18 2.1 x 50 mm; eluents: water / acetonitrile, 0.1% formic acid. In short, it runs like this:
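Each retention time is based on an adduct peak selected computationally and verified by manual inspection. Measurements used HPLC–quadrupole time-of-flight mass spectrometry in positive and negative ionization mode on mixtures of ~100 pure standards. Chromatography ran on a Zorbax Extend-C18 column (2.1 × 50 mm, 1.8 μm) at 100 μL/min with water and acetonitrile, each containing 0.1% formic acid, and dead and dwell volumes of 40 μL and 900 μL.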
As for `CC(=O)N1CCc2ccccc2C1C(=O)NC(C)C` (stereo unspecified), the RP-LC retention time was found to be 672 s. The figure for `CC1CCN(CCNC(=O)c2ccc3c(c2)nc2n3CCN(Cc3ccccc3)C2=O)CC1` is 621 s. The figure for `O=C(CCc1conc1-c1ccccc1)NCc1ccc2c(c1)OCO2` is 806 s; for `O=C(NCCCN1CCCC1)C1CCc2sc(C(=O)N3CCOCC3)cc2C1` (stereo unspecified) it is 566 s; for `Cc1cccc2c(=O)n(C3CCN(S(=O)(=O)c4ccc(F)cc4)CC3)cnc12` it is 949 s. The figure for `O=C(c1ccc(Cl)cc1)N1CCCCC(Sc2ncnc3sccc23)C1=O` (stereo unspecified) is 1050 s; for `O=S(=O)(c1ccc2c(c1)OCCO2)N1CCN(S(=O)(=O)C2CC2)CC1` it is 762 s; for `COCC1CN(S(=O)(=O)c2ccc(C)c(F)c2)CC12CCNCC2` (stereo unspecified) it is 643 s. The compound `CCn1nccc1-c1cccc(-c2noc(-c3ccc(OC)cc3C)n2)c1` yielded an RP-LC retention time of 1300 s. Turning to `CCOCc1nc(C2CCCN(C(=O)C3(c4ccccc4)CC3)C2)no1` (stereo unspecified), the RP-LC retention time was determined as 873 s. Next, `COc1cc2c(cc1OC)C(COc1ccc(F)cc1)N(C(=O)C(C)(C)C)CC2` (stereo unspecified): 998 s; `Cc1ccc(-c2c(C(=O)NCCN3CCOCC3)nc3ccccn23)cc1`: 616 s; `Cc1nc2c(n1C)CN(C(=O)c1ccc(Cl)s1)CC2`: 574 s. For the compound `COCC(=O)NC1CCC12CCN(S(=O)(=O)C(C)C)CC2` (stereo unspecified), the RP-LC retention time was 682 s. The compound `O=S(=O)(c1cccc(F)c1)N1CCC(n2c(-c3ccoc3)nc3cccnc32)C1` (stereo unspecified) came in with an RP-LC retention time of 872 s.

The compound `Cc1ccc(CN2C[C@@H](CO)[C@H](c3ccccn3)C2)nc1` had an RP-LC retention time of 559 s. Turning to `O=C(Nc1cccc(-c2nnc3n2CCCC3)c1)C1CC1`, the RP-LC retention time worked out at 601 s. The figure for `CCOc1ccc(NC(=O)N2CCC3(CC2)NC(=O)c2ccccc2N3C)cc1` is 781 s. Next, `CC(C)c1nncn1C1CCN(S(=O)(=O)Cc2ccccc2F)CC1`: 688 s; `Cc1ccc(CNc2cc(-n3ccnc3)ncn2)cc1`: 648 s. In the case of `Cc1ccc(C(=O)N2C[C@H](c3nc(-c4cccnc4)no3)[C@@H](C)C2)c(C)c1`, the RP-LC retention time was found to be 853 s. `Cc1ccc2cc(CN3CCC4(CC3)CC(C)(O)CCO4)c(=O)[nH]c2c1` (stereo unspecified) returned an RP-LC retention time of 603 s. Next, `COc1cc(NC(=O)C2=Cc3cc(Br)ccc3OC2)cc(OC)c1OC`: 997 s; `Cc1cc(-c2nc(-c3ccc(F)cc3)no2)c(C)n1CC(=O)N1CCCC(C)C1` (stereo unspecified): 1180 s. As for `COc1cccc(C(c2sc3ncnn3c2O)N2CCN(C(=O)c3ccco3)CC2)c1` (stereo unspecified), the RP-LC retention time was determined as 642 s. Next, `Cc1ccc(-c2cc3n(n2)CCCN(C(=O)c2cnccn2)C3)cc1`: 766 s; `CC(C)CC(=O)N1CCCC(C(=O)N2CCOCC2)C1` (stereo unspecified): 628 s; `O=C(NC1CCN(c2cc(-c3ccc(F)cc3)[nH]n2)C1)c1ccc2cc[nH]c2c1` (stereo unspecified): 714 s. `COc1ccc(OC)c(CNC(=O)[C@@H]2[C@H](c3cc(OC)c(OC)c(OC)c3)c3cc4c(cc3[C@H](O)[C@H]2CO)OCO4)c1` came in with an RP-LC retention time of 721 s. Next, `CCOC(=O)c1c(N)n(-c2ccccc2)c2nc3ccccc3nc12`: 683 s; `Cc1sc(C)c(S(=O)(=O)NC2CC2)c1-c1cc(C(F)(F)F)on1`: 1070 s. Next, `CCCN1C(=O)C(CC(=O)N(C)C)Sc2ncccc21` (stereo unspecified): 655 s; `CCN1C(=O)C(C)(C(=O)NCc2ccccc2OC)Oc2cccnc21` (stereo unspecified): 843 s.

In turn, `CN1c2cc(C(=O)NCCCc3ccccc3)ccc2C(=O)N2CCCCC21` (stereo unspecified) gave an RP-LC retention time of 885 s. `CN1C(=O)c2cccn2CC1CNC(=O)NCc1ccccc1` (stereo unspecified) yielded an RP-LC retention time of 646 s. The figure for `Cc1ccc(-c2cc3c4nnc(CCC(=O)N5CCN(c6ccccn6)CC5)n4ccn3n2)cc1C` is 650 s; for `CCOC(=O)N1CCN(C(=O)Cn2c(-c3cccn(C)c3=O)nc3ccccc32)CC1` it is 553 s; for `Cc1noc(-c2cccc(OC3CN(C(=O)NC4CCCC4)C3)c2)n1` it is 850 s. As to `CCC(C)NS(=O)(=O)c1cc(-c2nnc(-c3ccc(OC)c(OC)c3)o2)ccc1C` (stereo unspecified), the RP-LC retention time came to 938 s. Next, `CN1CCCCCCN(S(=O)(=O)c2cccc3nsnc23)CCC1=O`: 783 s; `O=C(NCc1csc(C2CCN(C(=O)Cc3ccc(Cl)cc3)CC2)n1)C1CC1`: 747 s; `COc1ccc(C(=O)NCc2c(-c3ccccc3)nc3sc(C)nn23)cn1`: 774 s. The compound `CCCn1cc(CCNC(=O)Nc2ccc(C)c(F)c2)c2cccnc21` returned an RP-LC retention time of 807 s. In the case of `Cc1ccc(N2CCN(Cc3nc(-c4ccc(N5CCSCC5)nc4)no3)CC2)cc1`, the RP-LC retention time was 959 s. The figure for `COC(=O)CSCC(=O)Nc1cc(C(F)(F)F)ccc1Cl` is 613 s; for `CC(C)NC(=O)C1=CCN(C(=O)c2cccc(F)c2)CC1` it is 712 s. The figure for `CC(C)(C)C(=O)OCOP(=O)(COCCn1cnc2c(N)ncnc21)OCOC(=O)C(C)(C)C` is 725 s; for `NCC(O)COc1cccc2ccccc12` (stereo unspecified) it is 679 s; for `COc1cccc(-c2cn3ccn(-c4ccc(F)c(F)c4)c(=O)c3n2)c1` it is 844 s. For the compound `CCNc1nc(NC(C)C)nc(-c2ccncc2)n1`, the RP-LC retention time amounted to 733 s. The figure for `O=S(=O)(c1ccc2nncn2c1)N(Cc1ccccc1F)c1ccc2c(c1)OCCO2` is 745 s. The figure for `Cc1ncc(-c2ccnc(Nc3ccc(S(C)(=O)=O)cc3)n2)n1C(C)C` is 636 s. The figure for `CCn1cc(S(=O)(=O)N2CCCN(S(=O)(=O)c3ccccc3)CCC(=O)NCC2)cn1` is 702 s; for `Cc1nc(-c2cc(S(=O)(=O)NCc3ccccc3Cl)c(C)s2)cs1` it is 1080 s. As for `Cc1ccccc1Cn1c(CN2CCC(C(=O)NC3CCCCCCC3)CC2)cc2ccccc21`, the RP-LC retention time turned out to be 934 s. For `Cc1cnc(C2CCC2)n1CCNC(=O)C1(c2ccccc2)CC1`, the RP-LC retention time is 654 s. Turning to `O=C(c1ccc2c(c1)N(Cc1ccccc1)C(=O)CO2)N1CCN(c2ccccn2)CC1`, the RP-LC retention time came to 1230 s. The figure for `CCSc1nc2ccc(NS(=O)(=O)c3ccc(Cl)cc3)cc2s1` is 1070 s.

Regarding `Cc1cc(C)cc(NC(=O)Cn2nc3c4cc(F)ccc4ncn3c2=O)c1`, the RP-LC retention time amounted to 752 s. The figure for `Cn1ccnc1SCC(=O)c1ccc([N+](=O)[O-])cc1` is 549 s; for `CCS(=O)(=O)c1ccc(-c2ccc(NS(=O)(=O)c3ccc(Cl)s3)cc2)nn1` it is 810 s; for `Cn1ncc(NC(=O)c2ccccc2F)c(N2CCOCC2)c1=O` it is 777 s. Next, `CCn1cc(S(=O)(=O)N2C[C@@H](COC)[C@H](C(=O)NC)C2)cn1`: 603 s; `O=C1[C@H]2CN(Cc3ccc(F)cc3)C[C@H]2C(=O)N1CCc1ccccc1`: 748 s. `Cc1ccc(C(=O)N2CCC(COc3ccc(C(=O)NC4CC4)cc3)CC2)cc1C` yielded an RP-LC retention time of 887 s. Next, `COc1ccccc1NC(=O)N1CCCC(Cn2c(C3CC3)nc3cccnc32)C1` (stereo unspecified): 681 s; `O=C(Cn1cccc1-c1nc(-c2ccc3c(c2)OCO3)no1)NCCC1=CCCCC1`: 1150 s.

`CC(=O)Nc1ccc(NC(=O)C2CC(=O)N(CCc3c[nH]c4ccc(Cl)cc34)C2)cc1` (stereo unspecified) gave an RP-LC retention time of 679 s. The figure for `O=S(=O)(CCc1noc(-c2ccc3c(c2)OCO3)n1)c1ccccc1` is 899 s; for `CCc1noc([C@@H]2CC(F)(F)CN2C(=O)c2ccoc2C)n1` it is 833 s; for `COCc1cc(=O)n(CC(=O)Nc2cc(C)ccc2C)c(N2CCOCC2)n1` it is 844 s. Next, `CS(=O)(=O)N1CCC(OC2CCN(C(=O)Nc3cccc(F)c3)CC2)CC1`: 720 s. `Cc1ccc2c(=O)c3c([nH]c2c1C)CCN(CC(=O)NC1CCCCC1)C3`: the RP-LC retention time is 619 s. Turning to `COc1ccc(CNC(=O)N(Cc2ccsc2)C2CC2)cc1OC`, the RP-LC retention time was found to be 769 s. With `Cn1cc(CCN2CCC(C(=O)NCc3ccc4c(c3)OCO4)CC2)c2cccnc21`, the RP-LC retention time was 584 s. Next, `COc1cc(Nc2nc3c(s2)CCCC3c2ccc(F)cc2)ccc1-n1cnc(C)c1` (stereo unspecified): 1010 s. Next, `O=C(Cc1ccccc1Br)N1CCc2cc(-c3ccno3)ccc21`: 1030 s; `Cc1nc(-c2cnccn2)n(CC(=O)Nc2cccc(Cl)c2)c(=O)c1C`: 792 s; `CC(C)Cn1c(=O)c(N2CCC(NC(=O)NCc3ccccc3)CC2)nc2ccccc21`: 980 s. Next, `Cc1noc(COC2CCCN(C(=O)CCc3c(C)noc3C)C2)n1` (stereo unspecified): 678 s; `Cc1cc(-c2nn3c(-c4cccc(F)c4)nnc3s2)c2ccccc2n1`: 887 s.
